This is an account of results in paper PMC6295861, “Privileged Structures and Polypharmacology within and between Protein Families” (ACS Medicinal Chemistry Letters, 2018).

Several values for one entry are separate records, joined by “and”; a condition that tells them apart may be missing. Equal values may be shown once.

Test [1] concerns the target cyclin-dependent kinase 9 (CDK9). Set-up: method as in PMID 27746890. The settings on record: cited from earlier work.
The next test has as its target T1, TAOK1 (Homo sapiens, UniProt Q7L7X3).
T1 sequence (Q7L7X3 1-1001): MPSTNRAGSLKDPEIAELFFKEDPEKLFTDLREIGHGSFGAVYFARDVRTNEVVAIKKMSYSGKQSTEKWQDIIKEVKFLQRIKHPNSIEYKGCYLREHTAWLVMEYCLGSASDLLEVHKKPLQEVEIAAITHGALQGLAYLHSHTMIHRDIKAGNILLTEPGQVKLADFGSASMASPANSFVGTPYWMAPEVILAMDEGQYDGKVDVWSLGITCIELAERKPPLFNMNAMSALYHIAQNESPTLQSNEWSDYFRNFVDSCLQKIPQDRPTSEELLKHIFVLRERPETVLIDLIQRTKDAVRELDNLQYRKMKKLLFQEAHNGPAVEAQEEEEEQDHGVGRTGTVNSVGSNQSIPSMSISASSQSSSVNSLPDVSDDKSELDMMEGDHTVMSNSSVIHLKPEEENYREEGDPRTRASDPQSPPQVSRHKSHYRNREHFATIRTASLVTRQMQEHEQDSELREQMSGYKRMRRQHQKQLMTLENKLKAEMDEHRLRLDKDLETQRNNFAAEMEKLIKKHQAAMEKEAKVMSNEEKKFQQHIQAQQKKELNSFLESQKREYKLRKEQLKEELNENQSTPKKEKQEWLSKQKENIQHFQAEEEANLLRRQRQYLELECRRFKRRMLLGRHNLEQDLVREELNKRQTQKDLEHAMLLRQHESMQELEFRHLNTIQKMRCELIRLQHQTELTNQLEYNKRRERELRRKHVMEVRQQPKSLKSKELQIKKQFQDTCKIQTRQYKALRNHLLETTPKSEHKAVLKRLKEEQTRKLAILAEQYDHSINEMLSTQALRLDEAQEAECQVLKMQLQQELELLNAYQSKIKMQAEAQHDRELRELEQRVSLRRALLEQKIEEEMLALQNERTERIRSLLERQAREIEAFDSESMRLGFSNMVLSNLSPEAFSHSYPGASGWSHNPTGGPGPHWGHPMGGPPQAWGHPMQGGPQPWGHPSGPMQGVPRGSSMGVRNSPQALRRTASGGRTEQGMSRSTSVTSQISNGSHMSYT
As to the kind of experiment: Radio labeled filter binding kinase assay, TAOK1. In kind it is biochemical. The settings on record: mean of duplicates.

The target of the next test is HIPK2 (Homo sapiens, UniProt Q9H2X6). In words: Radio labeled filter binding kinase assay, HIPK2. In kind it is biochemical.
Sequence of HIPK2 (Q9H2X6 whole entry): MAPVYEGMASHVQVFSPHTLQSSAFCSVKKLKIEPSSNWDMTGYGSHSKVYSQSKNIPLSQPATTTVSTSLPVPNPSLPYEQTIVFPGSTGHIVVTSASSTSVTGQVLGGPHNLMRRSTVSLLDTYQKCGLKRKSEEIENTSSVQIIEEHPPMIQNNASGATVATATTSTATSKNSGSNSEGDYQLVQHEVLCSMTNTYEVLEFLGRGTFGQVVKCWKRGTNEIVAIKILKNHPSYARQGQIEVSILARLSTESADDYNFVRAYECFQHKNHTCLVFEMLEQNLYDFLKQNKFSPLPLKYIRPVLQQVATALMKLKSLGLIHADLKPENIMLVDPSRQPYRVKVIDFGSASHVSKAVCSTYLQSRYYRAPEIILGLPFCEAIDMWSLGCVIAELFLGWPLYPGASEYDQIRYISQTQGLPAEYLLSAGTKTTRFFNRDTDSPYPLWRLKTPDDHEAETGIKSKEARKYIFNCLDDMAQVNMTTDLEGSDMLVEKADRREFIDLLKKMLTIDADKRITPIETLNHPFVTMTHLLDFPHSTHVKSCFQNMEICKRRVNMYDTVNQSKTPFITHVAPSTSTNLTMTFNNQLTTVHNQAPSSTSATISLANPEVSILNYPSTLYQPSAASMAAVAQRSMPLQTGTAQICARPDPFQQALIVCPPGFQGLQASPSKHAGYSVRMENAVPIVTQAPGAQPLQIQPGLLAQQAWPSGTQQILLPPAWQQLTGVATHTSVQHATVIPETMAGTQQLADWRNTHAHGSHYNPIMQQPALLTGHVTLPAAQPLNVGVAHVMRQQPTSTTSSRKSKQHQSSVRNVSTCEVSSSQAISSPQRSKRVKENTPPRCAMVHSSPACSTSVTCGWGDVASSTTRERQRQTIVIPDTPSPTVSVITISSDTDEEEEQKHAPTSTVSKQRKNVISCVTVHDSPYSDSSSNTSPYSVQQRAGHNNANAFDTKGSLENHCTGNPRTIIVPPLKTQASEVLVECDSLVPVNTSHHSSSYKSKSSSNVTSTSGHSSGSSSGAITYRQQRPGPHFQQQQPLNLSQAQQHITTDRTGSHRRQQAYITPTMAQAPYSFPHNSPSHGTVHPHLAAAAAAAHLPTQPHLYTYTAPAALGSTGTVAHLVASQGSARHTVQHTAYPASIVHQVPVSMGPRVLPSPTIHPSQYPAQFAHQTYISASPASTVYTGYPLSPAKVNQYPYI
A further test concerns the target B-Raf (WT) (Homo sapiens, UniProt P15056). In words: B-Raf Z'-LYTE cascade kinase assay (SelectScreen). In kind it is biochemical. The settings on record: ATP 100 μM, points 1 and 2, listed as CCT363294-01.

Sequence of B-Raf (WT) (P15056 whole entry): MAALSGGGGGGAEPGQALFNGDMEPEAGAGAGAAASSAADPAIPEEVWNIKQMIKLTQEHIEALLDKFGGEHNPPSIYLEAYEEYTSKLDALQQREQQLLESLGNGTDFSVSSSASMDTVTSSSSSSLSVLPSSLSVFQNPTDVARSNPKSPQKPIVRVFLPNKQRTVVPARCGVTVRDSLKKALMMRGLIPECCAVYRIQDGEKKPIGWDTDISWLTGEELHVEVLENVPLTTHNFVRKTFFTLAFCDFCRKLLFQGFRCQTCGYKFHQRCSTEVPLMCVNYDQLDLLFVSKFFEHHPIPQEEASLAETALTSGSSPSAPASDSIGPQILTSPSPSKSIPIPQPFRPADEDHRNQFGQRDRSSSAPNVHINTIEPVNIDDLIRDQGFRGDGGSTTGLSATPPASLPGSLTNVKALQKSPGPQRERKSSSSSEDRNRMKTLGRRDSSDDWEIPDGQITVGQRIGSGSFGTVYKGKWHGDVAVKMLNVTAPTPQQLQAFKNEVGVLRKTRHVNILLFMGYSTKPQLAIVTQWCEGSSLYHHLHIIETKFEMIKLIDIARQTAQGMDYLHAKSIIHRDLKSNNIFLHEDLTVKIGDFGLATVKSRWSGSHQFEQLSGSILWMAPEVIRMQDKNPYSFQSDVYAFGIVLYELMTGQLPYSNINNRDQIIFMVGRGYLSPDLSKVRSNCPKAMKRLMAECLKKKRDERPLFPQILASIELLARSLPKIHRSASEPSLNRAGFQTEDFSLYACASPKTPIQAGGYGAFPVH

With `c1cnc2ncn(-c3cc(Nc4ccc(OCCN5CCCCC5)cn4)ncn3)c2c1` [Compd 1], the IC50 in test [1] is ≤ 0.003 µM; on HIPK2 (SI Table S5, unit inferred, one per duplicate curve, read-out: HIPK2 IC50, fitted values above the IC50(µM) line), 0.0272 µM. The activity at 0.0003 µM is 108% on TAOK1 (0.0003 µM compound) and 99% at HIPK2 (0.0003 µM compound, duplicates). For the same compound, the activity at 0.001 µM on TAOK1 (0.001 µM compound) was 95%; at HIPK2 (0.001 µM compound, duplicates), 94%. The activity at 0.003 µM on TAOK1 (0.003 µM compound) came to 111%. Moreover, the activity at 0.01 µM at TAOK1 (0.01 µM compound) came to 116%; on HIPK2 (0.01 µM compound, duplicates), 86%. The activity at 0.03 µM at TAOK1 (0.03 µM compound) turned out to be 109%; at HIPK2 (0.03 µM compound, duplicates), 43%. Further, the activity at 0.1 µM on TAOK1 (0.1 µM compound) turned out to be 82%; at HIPK2 (0.1 µM compound, duplicates), 26%. Also, the activity at 0.3 µM on TAOK1 (0.3 µM compound) is 69%; on HIPK2 (0.3 µM compound, duplicates) it was 9%. Moreover, the activity at 1 µM turned out to be 46% on TAOK1 (1 µM compound) and 6% on HIPK2 (1 µM compound, duplicates). Also, the activity at 3 µM at TAOK1 (3 µM compound) was found to be 20%. The activity at 10 µM at TAOK1 (10 µM compound) was 11%. In addition, the HIPK2 % activity was 95% on HIPK2 (0.0003 µM compound, duplicates, listed as CCT250006, 0.0003 µM); 107% on HIPK2 (0.001 µM compound, duplicates, listed as CCT250006, 0.001 µM); 95% and 121% on HIPK2 (0.003 µM compound, duplicates, listed as CCT250006, 0.003 µM); 88% at HIPK2 (0.01 µM compound, duplicates, listed as CCT250006, 0.01 µM); 39% at HIPK2 (0.03 µM compound, duplicates, listed as CCT250006, 0.03 µM); 35% at HIPK2 (0.1 µM compound, duplicates, listed as CCT250006, 0.1 µM). The HIPK2 % activity was 11% at HIPK2 (0.3 µM compound, duplicates, listed as CCT250006, 0.3 µM); 5% on HIPK2 (1 µM compound, duplicates, listed as CCT250006, 1 µM); 1% and 4% at HIPK2 (3 µM compound, duplicates, listed as CCT250006, 3 µM); 1% and 5% at HIPK2 (10 µM compound, duplicates, listed as CCT250006, 10 µM).
On to `CC(C)(C)N1CCN(Cc2ccc3cc(C(=O)Nc4cc(NC(=O)c5ccc6c(c5)OCCO6)ccc4Cl)ccc3n2)CC1` [Compd 8, 2-((4-(tert-butyl)piperazin-1-yl)methyl)-N-(2-chloro-5-(2,3-dihydrobenzo[b][1,4]dioxine-6-carboxamido)phenyl)quinoline-6-carboxamide], for which the “% Inhibition BRAF” value at B-Raf (WT) (1.52 nM compound) is -10% and -14%; at B-Raf (WT) (13.7 nM compound) it was -17% and -16%; at B-Raf (WT) (41.2 nM compound) it was -36% and -33%; at B-Raf (WT) (123 nM compound), -22% and -28%; on B-Raf (WT) (1110 nM compound) it was -4% and -8%; at B-Raf (WT) (3330 nM compound), 6% and -3%.

The IC50 is the concentration at which inhibition is half-maximal.
